One assay deals with BaF3 PIM1 cells. As to the kind of experiment: In vitro cell proliferation, BaF3 transfected with PIM1. Particulars: Mus musculus; BaF3 PIM1 line, incubated overnight; read-out: Prolif BaF3 PIM1 (IC50). The class given is cell-based, murine. On the procedure: (§1) BaF3 parental line was obtained from the DSMZ repository. BaF3 lines transfected with PIM1 or PIM2 were generated. Mouse IL-3 was purchased from R&D Systems. G418 was purchased from Clontech. Media for BaF3 parental line contained RPMI, 10% FBS, 2 mM L-Glutamine, 2 ng/mL mIL-3. Media for BaF3 PIM1 & 2 lines contained RPMI, 10% FBS, 2 mM L-Glutamine, […]. Media for MM1.S (multiple myeloma cells) line contained RPMI, 10% FBS, 2 mM L-Glutamine.
(§2) BaF3, a murine interleukin-3 dependent pro-B cell line, parental cells, BaF3 PIM1 cells, BaF3 PIM2 cells, and MM1.S (multiple myeloma) cells were seeded at 2 k/well, 5 k/well, 5 k/well, and 10 k/well respectively, in a 384-well plate, at 45 μL/well. Test compound was added at 5 μL/well. BaF3 cells (parental and transfected) were incubated overnight, while MM1.S cells were incubated for 72 hours at 37° C., 5% CO2. CELL TITER GLO® Reagent (Promega) was added at 50 μL/well, the plates were incubated for 30 minutes, and their luminescence read on an HT Analyst. IC50/EC50 values for the test compound were calculated.

The next assay deals with BaF3 parental cells. As to the kind of experiment: In vitro cell proliferation, BaF3 parental line + IL3. The class given is cell-based, murine. The conditions noted are these: Mus musculus; BaF3 parental line with mIL-3, incubated overnight; read-out: Prolif BaF3 + IL3 (IC50). On the procedure: as §1, §2
In the next assay the target is PIM1 (Homo sapiens (Human), UniProt P11309). As to the kind of experiment: Pim kinase binding activity (PIM1 LC3K Ki). The class given is biochemical. Particulars: 20 pM PIM1, 10 μM ATP, 90 minutes. On the procedure:
PIM-1, -2, and -3 enzymes were generated as fusion proteins expressed in bacteria and purified by IMAC column chromatography (Sun, X., Chiu, J. F., and He, Q. Y. (2005) Expert Rev. Proteomics, 2:649-657). A fluorescent-labeled Pim-specific peptide substrate, was custom synthesized by American Peptide Company (Sunnyvale, Calif.). Reaction Buffer contained 10 mM HEPES, pH 7.2, 10 mM MgCl2, 0.01% Tween 20, 2 mM DTT. Termination Buffer contained 190 mM HEPES, pH 7.2, 0.015% Brij-35, 0.2% Coating Reagent 3 (Caliper Life Sciences, Hopkinton, Mass.), 20 mM EDTA. Separation Buffer contained 100 mM HEPES, pH 7.2, 0.015% Brij-35, 0.1% Coating Reagent 3, 1:200 Coating Reagent 8 (Caliper Life Sciences, Hopkinton, Mass.), 10 mM EDTA and 5% DMSO.
PIM reactions were carried out in a final volume of 10 μL per well in a 384-well plate. A standard enzymatic reaction, initiated by the addition of 5 μL 2×ATP and test compound to 5 μL of 2× enzyme and FAM-peptide, contained 20 pM PIM1, 50 pM PIM2, or 55 pM PIM3, 1 μM FAM-peptide, and 10 μM ATP, in Reaction Buffer. After 90 minutes of incubation at room temperature, the phosphorylation reaction was stopped by the addition of 10 μL Termination Buffer. The product and substrate in each independent reaction were separated on a 12-sipper microfluidic chip (Caliper Life Sciences, Hopkinton, Mass.) run on a Caliper LC3000® (Caliper Life Sciences, Hopkinton, Mass.). The separation of product and substrate was optimized by choosing voltages and pressure using Caliper's Optimizer software (Hopkinton, Mass.). The separation conditions used a downstream voltage of −500V, an upstream voltage of −2150V, and a screening pressure of −1.2 psi. The product and substrate fluorophore were excited at 488 nm and detected at 530 nm. Substrate conversion was calculated from the electropherogram using HTS Well Analyzer software (Caliper Life Sciences, Hopkinton, Mass.). Ki values for the test compound were calculated. See Table 1 for representative PIM1 LC3K Ki in micromolar values of exemplary compounds.

Assay [1] relates to MM1.S (multiple myeloma) cells. As to the kind of experiment: In vitro cell proliferation, MM1.S (CELL TITER GLO). The class given is cell-based. The conditions noted are these: Homo sapiens, 72 hours, read-out: Prolif MM1S ATP (EC50). The protocol:
as §1, §2

PIM1, sequence (P11309 whole entry, the tested form may be a part): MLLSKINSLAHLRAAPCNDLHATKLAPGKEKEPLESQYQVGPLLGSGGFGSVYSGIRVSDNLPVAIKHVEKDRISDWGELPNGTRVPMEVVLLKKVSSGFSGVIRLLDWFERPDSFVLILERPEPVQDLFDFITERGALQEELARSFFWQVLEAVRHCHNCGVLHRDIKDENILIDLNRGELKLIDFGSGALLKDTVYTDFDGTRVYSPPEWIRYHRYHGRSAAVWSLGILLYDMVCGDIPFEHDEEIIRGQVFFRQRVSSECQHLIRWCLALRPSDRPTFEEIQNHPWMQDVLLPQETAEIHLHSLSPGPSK

On to `C[C@H](F)c1cc(F)c(-c2nc(C(=O)Nc3cnn(C)c3[C@@H]3CC[C@@H](N)[C@H](F)CO3)cs2)c(F)c1` [Example 101, N-(5-((2S,5R,6S)-5-amino-6-fluorooxepan-2-yl)-1-methyl-1H-pyrazol-4-yl)-2-(2,6-difluoro-4-((S)-1-fluoroethyl)phenyl)thiazole-4-carboxamide], for which the IC50 stood at 24.8 nM in the assay with BaF3 PIM1 cells and 7100 nM with BaF3 parental cells. Moreover, at PIM1, the Ki was determined as 0.002 nM. For the same compound, the EC50 in assay [1] came out at 441 nM.
For `Cn1ncc(NC(=O)c2csc(-c3c(O)cccc3F)n2)c1[C@@H]1CC[C@@H](N)[C@H](F)CO1` [Example 102, N-[5-[(2S,5R,6S)-5-amino-6-fluoro-oxepan-2-yl]-1-methyl-pyrazol-4-yl]-2-(2-fluoro-6-hydroxy-phenyl)thiazole-4-carboxamide] the same measures were 164 nM, 9100 nM, 0.121 nM and 702 nM.
For `N[C@H]1CC[C@H](c2c(NC(=O)c3csc(-c4c(F)cccc4F)n3)cnn2C2CC2)OC[C@@H]1F` [Example 103, N-[5-[(2R,5S,6R)-5-amino-6-fluoro-oxepan-2-yl]-1-cyclopropyl-pyrazol-4-yl]-2-(2,6-difluorophenyl)thiazole-4-carboxamide] the same measures were 145 nM, 12000 nM, 0.18 nM and 731 nM.
On to `Cn1ncc(NC(=O)c2csc(-c3ccc4c(c3)CCO4)n2)c1[C@@H]1CC[C@@H](N)[C@H](F)CO1` [Example 104, N-[5-[(2S,5R,6S)-5-amino-6-fluoro-oxepan-2-yl]-1-methyl-pyrazol-4-yl]-2-(2,3-dihydrobenzofuran-5-yl)thiazole-4-carboxamide], for which the values for the IC50 with BaF3 PIM1 cells and in the assay with BaF3 parental cells were 98.5 nM and 13200 nM, respectively. This compound had a Ki at PIM1 of 0.104 nM. In addition, in assay [1], the EC50 was determined as 544 nM.
On to `Cn1ncc(NC(=O)c2csc(-c3cnccn3)n2)c1[C@@H]1CC[C@@H](N)[C@H](F)CO1` [Example 105, N-[5-[(2S,5R,6S)-5-amino-6-fluoro-oxepan-2-yl]-1-methyl-pyrazol-4-yl]-2-pyrazin-2-yl-thiazole-4-carboxamide], for which the IC50 in the assay with BaF3 PIM1 cells was 142 nM; in the assay with BaF3 parental cells, greater than 25000 nM. The compound further yielded a Ki at PIM1 of 0.095 nM. Besides, the EC50 in assay [1] was found to be 473 nM.
For `C[C@@H](F)c1cc(F)c(-c2nc(C(=O)Nc3cnn(C)c3[C@@H]3CC[C@@H](N)[C@H](F)CO3)cs2)c(F)c1` [Example 106, N-(5-((2S,5R,6S)-5-amino-6-fluorooxepan-2-yl)-1-methyl-1H-pyrazol-4-yl)-2-(2,6-difluoro-4-((R)-1-fluoroethyl)phenyl)thiazole-4-carboxamide] the same measures were 29.9 nM, 8600 nM, 0.015 nM and 235 nM.
Regarding `CO[C@H]1[C@H](C)O[C@@H](c2c(NC(=O)c3csc(-c4c(F)cccc4F)n3)cnn2C)CC[C@@H]1N` [Example 107, N-(5-((2R,5S,6R,7S)-5-amino-6-methoxy-7-methyloxepan-2-yl)-1-methyl-1H-pyrazol-4-yl)-2-(2,6-difluorophenyl)thiazole-4-carboxamide], the half-inhibitory concentration (IC50) in the assay with BaF3 PIM1 cells was found to be 264 nM; in the assay on BaF3 parental cells, 20700 nM. Affinity at PIM1 was put at a Ki of 0.1 nM. Moreover, in assay [1], the EC50 was determined as 5800 nM.
Turning to `COc1cc(F)c(-c2nc(C(=O)Nc3cnn(C)c3[C@@H]3CC[C@@H](N)[C@H](F)CO3)cs2)cc1Cl` [Example 108, N-[5-[(2S,5R,6S)-5-amino-6-fluoro-oxepan-2-yl]-1-methyl-pyrazol-4-yl]-2-(5-chloro-2-fluoro-4-methoxy-phenyl)thiazole-4-carboxamide], the IC50 in the assay with BaF3 PIM1 cells worked out at 80.5 nM; with BaF3 parental cells, 1900 nM. Moreover, the Ki at PIM1 is 0.042 nM. For the same compound, in assay [1], the EC50 turned out to be 490 nM.
For `Cn1ncc(NC(=O)c2csc(-c3c(F)cc4c(c3F)OCC[C@@H]4O)n2)c1[C@@H]1CC[C@@H](N)[C@H](F)CO1` [Example 111, N-(5-((2S,5R,6S)-5-amino-6-fluorooxepan-2-yl)-1-methyl-1H-pyrazol-4-yl)-2-((S)-6,8-difluoro-4-hydroxychroman-7-yl)thiazole-4-carboxamide], the IC50 in the assay with BaF3 PIM1 cells was 96.2 nM; in the assay with BaF3 parental cells it was greater than 25000 nM. Besides, in assay [1], the EC50 is 1500 nM.
For `N[C@@H]1CC[C@@H](c2c(NC(=O)c3csc(-c4c(F)cccc4F)n3)cnn2CC(F)F)OC[C@H]1F` [Example 115, N-(5-((2S,5R,6S)-5-amino-6-fluorooxepan-2-yl)-1-(2,2-difluoroethyl)-1H-pyrazol-4-yl)-2-(2,6-difluorophenyl)thiazole-4-carboxamide] the same measures were 29.3 nM, 5500 nM and 181 nM.
Consider `N[C@H]1CC[C@H](c2c(NC(=O)c3csc(-c4c(F)cccc4F)n3)cnn2CC(F)F)OC[C@@H]1F` [Example 116, N-(5-((2R,5S,6R)-5-amino-6-fluorooxepan-2-yl)-1-(2,2-difluoroethyl)-1H-pyrazol-4-yl)-2-(2,6-difluorophenyl)thiazole-4-carboxamide], for which the IC50 with BaF3 PIM1 cells amounted to 2750 nM; with BaF3 parental cells, 10500 nM. The EC50 in assay [1] amounted to 2700 nM.
`C[C@@H]1O[C@H](c2c(NC(=O)c3csc(-c4c(F)cccc4F)n3)cnn2C)CC[C@@H](N)[C@@H]1F` [Example 124, N-[5-[(2S,5R,6S,7S)-5-amino-6-fluoro-7-methyl-oxepan-2-yl]-1-methyl-pyrazol-4-yl]-2-(2,6-difluorophenyl)thiazole-4-carboxamide] gave a Ki on PIM1 of 0.051 nM. In addition, the EC50 in assay [1] turned out to be 54 nM.
For `Cn1ncc(NC(=O)c2csc(-c3cn4ccncc4n3)n2)c1[C@@H]1CC[C@@H](N)[C@H](F)CO1` [Example 125, N-(5-((2S,5R,6S)-5-amino-6-fluorooxepan-2-yl)-1-methyl-1H-pyrazol-4-yl)-2-(imidazo[1,2-a]pyrazin-2-yl)thiazole-4-carboxamide] the same measures were 32.8 nM and greater than 25000 nM.
For `N[C@H]1CC[C@H](c2[nH]ncc2NC(=O)c2csc(-c3c(F)cccc3F)n2)OC[C@@H]1F` [Example 126, N-(5-((2R,5S,6R)-5-amino-6-fluorooxepan-2-yl)-1H-pyrazol-4-yl)-2-(2,6-difluorophenyl)thiazole-4-carboxamide] the same measures were 1.48 nM and 8000 nM.
For `Cc1cccnc1-c1nc(C(=O)Nc2cn[nH]c2[C@H]2CC[C@H](N)[C@@H](F)CO2)cs1` [Example 127, N-(5-((2R,5S,6R)-5-amino-6-fluorooxepan-2-yl)-1H-pyrazol-4-yl)-2-(3-methylpyridin-2-yl)thiazole-4-carboxamide] the same measures were 1.1 nM and 10800 nM.
As to `Cc1cccnc1-c1nc(C(=O)Nc2cn[nH]c2[C@@H]2CC[C@@H](N)[C@H](F)CO2)cs1` [Example 128, N-(5-((2S,5R,6S)-5-amino-6-fluorooxepan-2-yl)-1H-pyrazol-4-yl)-2-(3-methylpyridin-2-yl)thiazole-4-carboxamide], affinity at PIM1 was put at a Ki of 0.777 nM. Further, in assay [1], the EC50 is 3000 nM.
For `N[C@@H]1CC[C@@H](c2[nH]ncc2NC(=O)c2csc(-c3c(F)cccc3F)n2)OC[C@H]1F` [Example 129, N-(5-((2S,5R,6S)-5-amino-6-fluorooxepan-2-yl)-1H-pyrazol-4-yl)-2-(2,6-difluorophenyl)thiazole-4-carboxamide] the same measures were 0.958 nM and 7300 nM.

Source of the values: US9963446B2, “Oxepan-2-yl-pyrazol-4-yl-heterocyclyl-carboxamide compounds and methods of use” (Genentech, Inc., priority 2014, dated 2018).
